Laboratory results: patent US8530456B2, “Sonic hedgehog modulators” (President and Fellows of Harvard College, priority 2008, dated 2013)
pEC50: −log10 of the molar value. Entries after “also recorded” stand apart in the source; their conditions may differ.

Tests used:
[1] = tested on: Ptc1-/- MEF cell line (Gli1-beta-galactosidase reporter); assay: Ptc1-/- cell line beta-galactosidase reporter assay; assay type: cell-based, mouse
Protocol: To explore further the potential mechanism of Shh pathway inhibition involving direct perturbation of the ShhN protein complex, the same compounds were tested in a Ptc1^−/− cell line derived from mouse embryos lacking Ptc1 function. The cell line had both Ptc1 alleles replaced with a β-galoctosidase (β-gal) reporter (Surajit et al., supra). Because Ptc1 inhibits Hh pathway activation by repressing Smo function, removing both Ptc1 alleles results in constitutive pathway activation.
The ptc−/− cell line was derived from an embryonic mouse fibroblast cell line transfected with a β-galactosidase construct. The cell line was cultured in DMEM with 10% FBS until confluent, and then cells were plated 1:5 into white 96-well optical-bottom plates and allowed to reach a confluent state over 3-4 days while incubating at 37° C. After reaching confluency, the medium was removed from each well, and the cells were treated with test compound (for example, robotnikinin or cyclopamine) (EMD Biosciences, San Diego, Calif.) in DMEM with 0.5% FBS. After a 30 hour incubation, the wells were treated with Beta-Glo assay reagent (Promega, Madison, Wis.) and allowed to be gently agitated for 30 minutes at room temperature. After the agitation was complete, plates were read with an Envision Multi-Label Reader 2102 luminometer.

[2] = tested on: Gli1 mRNA; assay: Gli1 mRNA by qPCR in primary human keratinocytes; assay type: cell-based
Source text: (§1) Culturing of primary human keratinocytes was previously described (Nguyen, B. C., et al., Genes & Dev. 20:1028-1042 (2006)). The full thickness skin model, EpiDermFT System (MatTek, Ashland), consists of normal, human-derived epidermal keratinocytes and normal, human-derived dermal fibroblasts which have been cultured to form a multilayered, highly differentiated model of the human dermis and epidermis.
(§2) Gene expression was compared by quantifying mRNA levels by real time RT-PCR. For this, total RNA preparations (1 μg) were used in a reverse transcriptase reaction with a mix of oligonucleotide dT and random hexamer primers, followed by real time PCR with gene-specific primers (Gli1: Qiagen Quantitect PrimerAssay QT00060501; Gli2: Qiagen Quantitect PrimerAssay QT00018648), using an Icycler IQTM real time detection system (Bio-Rad) according to the manufacturer's recommendation, with SYBR Green (Bio-Rad) for detection. Each sample was tested in triplicate, and the results were normalized by real time PCR of the same cDNA with 36B4 primers (36B4 forward primer: 5′-GCAATGTTGCCAGTGTCTGT 3; reverse primer, 5′-GCCTTGACCTTTTCAGCAAG-3′).

[3] = molecular target: ShhN (N-terminal fragment of Sonic Hedgehog protein) (Homo sapiens, UniProt Q15465); assay: Surface plasmon resonance (SPR) binding to immobilized purified ShhN; details: for ShhN binding in SPR: 0.78-25 μM compound
ShhN (N-terminal fragment of Sonic Hedgehog protein), sequence (Q15465 24-197): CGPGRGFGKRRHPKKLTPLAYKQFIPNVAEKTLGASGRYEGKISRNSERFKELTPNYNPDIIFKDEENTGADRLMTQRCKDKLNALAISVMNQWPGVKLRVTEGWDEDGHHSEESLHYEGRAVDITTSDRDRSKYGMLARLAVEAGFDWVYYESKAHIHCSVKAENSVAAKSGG
Protocol: Biacore™ T100 (GE Healthcare, Uppsala, Sweden) was used to perform the experiments reported herein. Sensor surface preparation and interaction analyses experiments were performed at 25° C. Prior to surface preparation, lyophilized ShhN protein (R&D Systems) was dissolved in either water or PBS buffer, at pH 7.4 and protein purity determined by Nu-Page 4-12% Bis-Tris gel in MOPS buffer with a silver stain sensor preparation.
ShhN was immobilized onto series S sensor chip CM4 via a standard N-ethyl-N′-(dimethylaminopropyl)carbodiimide/N-hydroxysuccinimide (EDC/NHS) amine coupling procedures (Biacore Sensor Surface Handbook, 2003, version AA, Biacore, Uppsala, Sweden). Shh was diluted to 10 μg/mL in 10 mM sodium acetate pH 5.5 for these procedures and resultant immobilization levels were 1000-1200 R.U.s. Control surfaces were prepared similarly without protein derivatization and utilized as a reference surfaces for compound binding experiments.
For compound interaction analyses, 0.01 M Hepes, pH 7.4, 0.15 M NaCl, 0.05% Surfactant P20 and 5% DMSO was used for both running and sample buffers. Compound samples were prepared by serial dilution in the range 0.78 uM-25 uM and flowed over control and derivatized surfaces for two minutes at a flow-rate of 80 μL/min. Zero concentration blank buffer cycles were included as negative control samples. Solvent correction procedures were included to compensate for any DMSO related bulk refractive index variations and performed as described previously (Karlsson, R. et al. Anal. Biochem. 278, 1-13, 2000). Non-specific binding effects to sensor surface CM4 were absent for all analyses reported.
Data analysis was carried out using Biacore T100 evaluation software v1.1.1. Data were prepared by subtraction of reference surface data and blank buffer sample data, a procedure commonly referred to as ‘double referencing’ (Myszka, D. G. J. Mol. Recognit. 12, 1-6, 1999). Solvent correction was then applied as described previously.

[4] = tested on: ShhL2 cells; assay: Cell Titer Glo cell viability assay run in parallel in ShhL2 cells; assay type: cell-based
Protocol: (§3) ShhL2 cells are NIHT3 cells that have been transfected with a Gli-luciferase construct, as previously reported (Tapaile, et al. 2000; Surajit, et al., supra). ShhL2 cells (ATCC, Manassas, Va.) were cultured with DMEM (GIBCO, Carlsbad, Calif.), 10% Calf Bovine Serum (ATCC Manassas, Va.), 0.4 mg/ml G-418 (ATCC, Manassas, Va.), 0.15 mg/ml Zeocin (Invitrogen, Carlsbad Calif., Cat. No. R25001) at 37° C. When confluent, the cells were plated 1:5 into white 96-well optical-bottom plates and allowed to reach confluence over approximately 5-7 days. When confluent, the medium was removed and the ShhL2 cells were treated with test compound (for example, robotnikinin or cyclopamine) (EMD Biosciences, San Diego, Calif.) in DMEM with 0.5% Calf Bovine Serum. After incubation for 30 hours, each well was treated with 100 μL of Bright-Glo luciferase assay reagent (Promega, Madison, Wis.) and the plate was read with an Envision Multi-Label Reader 2102 luminometer (Perkin Elmer, Waltham, Mass.). Wells treated in identical fashion were then treated with Cell Titer-Glo reagent (Promega, Madison, Wis.) and read with an Envision Multi-Label Reader 2102 luminometer after being allowed to stand 10 minutes at room temperature.

[5] = tested on: hair regrowth; assay: Topical application after depilation, hair regrowth in mice; assay type: in vivo, mouse
Protocol: Eight-week-old C57BL/6J female mice were purchased from Charles River (Boston, Mass.). Mice were housed in community cages at the animal facilities of the Massachusetts General Hospital. All mice were fed water and murine chow ad libitum and kept under 12 h light/dark cycles. Active hair growth (anagen) was induced in the back skin during the telogen phase of the hair cycle by application of the wax-rosin mixture with subsequent depilation, as described before (Paus, R., Stenn, K. S., Link, R. E. (1990). Br. J. Dermatol. 122, 777-784).
Robotnokinin was dissolved in 10% DMSO and applied every day topically on the depilated skin surface. Mice were kept in individual cages to avoid scratching. Telogen-anagen transformation was studied at the following time points: telogen (unmanipulated skin), anagen (day 8 postdepilation) and very late anagen (day 12 postdepilation) (see FIG. 8a, top panels). In all experiments, the neck region of back skin was harvested parallel to the vertebral line for either heat-mediated epidermal separation and subsequent real time RT-PCR analysis for Gli1 and Gli2 expression levels or embedded for histology on frozen sections (see FIG. 8a, bottom panel, and FIG. 8b).

[6] = tested on: Gli2 mRNA; assay: Gli2 mRNA by qPCR in primary human keratinocytes; assay type: cell-based
Source text: as §1, §2

[7] = tested on: Gli1 (Gli-dependent firefly luciferase reporter, ShhL2 cell line); assay: ShhL2 (Shh-LIGHT2) Gli-luciferase reporter assay; assay type: cell-based
Protocol: We examined the activity of the new series of AML compounds in Shh-LIGHT2 cells (ATCC, Manassas Va.) (Tapaile, J., et al., 2000 supra), which is an NIH3T3 cell line with a Gli-dependent firefly luciferase reporter.
Therefore, compounds that repress Gli1 activity would be putative inhibitors of Shh signaling in the cell line in which the experiments were carried out. We examined the activity of the new series of AML compounds in the Shh Light II cell line, or ShhL2 line (ATCC, Manassas Va.) (Tapaile, J., et al., 2000 supra), which is an NIH3T3 line transformed with a Gli-luciferase construct along with zeocin and G418 resistance vectors to select for the transformed strains during normal culturing.
as §3

[8] = tested on: Gli1 and Gli2 transcripts; assay: Synthetic skin (primary human keratinocytes on collagen matrix): qPCR and histology; assay type: cell-based
Source text: as §1, §2

[9] = molecular target: T1, ShhN protein (rmShh) (Mus musculus, UniProt Q62226); assay: Small molecule microarray (SMM) screen for ShhN binding; details: screened in triplicate
T1 construct: Recombinant mouse amino-terminal peptide 461-CF (rmShh); purchased R & D Systems 461-CF
T1 sequence (Q62226 25-198 limits assumed): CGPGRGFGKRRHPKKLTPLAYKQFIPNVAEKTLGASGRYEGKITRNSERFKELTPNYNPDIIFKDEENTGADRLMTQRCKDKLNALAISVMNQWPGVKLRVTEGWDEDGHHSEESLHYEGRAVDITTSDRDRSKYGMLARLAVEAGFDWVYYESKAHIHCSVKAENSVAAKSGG
Protocol: A screen of the ShhN protein was performed using small molecule microarrays (SMMs) containing a collection of approximately 10,000 diversity-oriented synthesis (DOS) compounds and natural products that has been reported by Koehler and co-workers, in which the entire library was arrayed on a single microscope slide (Bradner, J. E. et al. Chem. Biol. 13, 493-504, 2006). Three SMM slides were used to screen for small molecules that bind the ShhN protein, while two slides were designated as protein-free negative controls. Binding was detected by the use of a biotinylated anti-ShhN antibody, followed by incubation with streptavidin alexa 647. The treated slides were then scanned with a microarray plate reader. The duplicate negative controls eliminated many false positives, while screening in triplicate increased the accuracy of the results. Microarray image analysis was performed with GenePix Pro software (Molecular Devices, Sunnyvale Calif.). […] The software was then used to select all remaining possible positives in the ShhN-treated slides that exceeded our criteria for fluorescence intensity threshold. […]
The three experimental SMM slides were incubated on parafilm (Alcon, Menasha Wis.) with 300 μL of a 25 μg/mL rmShh solution in a 0.1% BSA in PBS buffer. […] Slides were dried by centrifugation and scanned with a GenePix 4000B microarray plate reader (Axon Instruments, Sunnyvale Calif.). […]

CC1=C2C[C@H]3[C@@H](CC=C4C[C@@H](O)CC[C@@]43C)[C@@H]2CC[C@]12O[C@@H]1C[C@H](C)CN[C@H]1[C@H]2C [cyclopamine, reference compound]
pathway inhibition in Ptc1-/- cell line ([1]; 6.6 μM cyclopamine): significant pathway inhibition

O=C(C[C@@H]1C/C=C/CCC(=O)O[C@H](c2ccccc2)CNC1=O)NCc1ccc(Cl)cc1 [robotnikinin, N-(4-chlorobenzyl)-2-((2R,6S,E)-5,12-dioxo-2-phenyl-1-oxa-4-azacyclododec-8-en-6-yl)acetamide]
effect on Gli1/Gli2 mRNA with co-administered Smo agonists purmorphamine and SAG ([2]; primary human keratinocytes): this effect is blocked | endogenous Gli1 mRNA level ([2]; qPCR, normalized for cell titer): lowers levels | ShhN binding in SPR [3]: ShhN-binding capacity at concentrations between 1.56 μM and 25 μM; also recorded: concentration-dependent binding to purified ShhN | dissociation time in SPR ([3]; compared with AML1 and AML2): longer dissociation time than AML1 and AML2 | cytotoxicity ([4]; Cell Titer Glo, ShhL2 cells, concentration above which cytotoxic): none | cytotoxicity ([4]; cell titer viability assay): No significant cytotoxicity was observed | hair follicles in skin cross sections ([5]; 12 days post depilation): lack of hair follicles | hair regrowth ([5]; topical, daily, 8 and 12 days post depilation, C57BL/6J mice): blocked hair regrowth | endogenous Gli2 mRNA level [6]: lowers levels; also recorded: lower levels of endogenous Gli2 mRNA | pathway inhibition in Ptc1-/- cell line ([1]; 30 h, any concentration tested, normalized for cell titer): no pathway inhibition was observed; also recorded: pathway inhibition was not observed | pEC50 ([7]; Shh Light2, ShhL2 cell line, Bright Glo luciferase, approximations based on concentration curves): ~5.40 | concentration giving inhibition comparable to 6.25 μM cyclopamine ([7]; Shh-LIGHT2 cells): above 30 μM | inhibition with co-administered purmorphamine ([7]; Shh-LIGHT2 cells, ShhN-conditioned medium plus 3.6 μM purmorphamine): virtually all of the inhibitory effect was eliminated; also recorded: negligible inhibition | Gli1 ECmax ([7]; ShhL2 cell line, concentration of maximal effect): 62.5 µM | Shh pathway inhibition / Gli1 suppression ([7]; ShhN-conditioned medium, 30 h incubation): concentration-dependent inhibition of ShhN-induced pathway activation; also recorded: strong concentration dependent Gli1 suppression | % CI (% cyclopamine inhibition), footnote d ([7]; may be taken relative to mock treatment (comparable to 6 μM cyclopamine), cytotoxic compounds: at highest effective non-cytotoxic concentration): 91% | histology of treated synthetic skin [8]: histologically normal | Gli1 and Gli2 mRNA levels in synthetic skin ([8]; qPCR after incubation): reduced levels of Gli1 and Gli2 mRNA

CC1CNC(=O)C(CC(=O)N(CCO)Cc2ccccc2)CC=CCCC(N)C(=O)O1 (centres unmarked) [AML1]
ShhN binding in SPR [3]: binding to ShhN in a concentration-dependant fashion | SMM screen result [9]: assay positives

CC1COC(=O)C(N)CCC=CCC(CC(=O)N(CCO)Cc2ccccc2)C(=O)N1 (centres unmarked) [AML2]
ShhN binding in SPR [3]: binding to ShhN in a concentration-dependant fashion | SMM screen result [9]: assay positives
